Reference: US10960005B2, “Treatment of relapsed and/or refractory solid tumors and non-hodgkin's lymphomas” (CELGENE QUANTICEL RESEARCH, INC., priority 2016, dated 2021)
Like-named read-outs stand apart in the source and are kept apart here.

Key:
[1] = 4-week toxicity study (no recovery period) in dogs (QW/Q2W); type: in vivo; details: for AUC0-96 / Cmax: Dogs
Description: All animals survived to the terminal sacrifice.

[2] = molecular target: MDR1 (human P-gp) MDCK cells (Homo sapiens (Human), UniProt P08183); assay: Permeability in MDR1 (human P-gp) MDCK cells; details: B→A direction
MDR1 (human P-gp) MDCK cells, sequence (P08183 whole entry): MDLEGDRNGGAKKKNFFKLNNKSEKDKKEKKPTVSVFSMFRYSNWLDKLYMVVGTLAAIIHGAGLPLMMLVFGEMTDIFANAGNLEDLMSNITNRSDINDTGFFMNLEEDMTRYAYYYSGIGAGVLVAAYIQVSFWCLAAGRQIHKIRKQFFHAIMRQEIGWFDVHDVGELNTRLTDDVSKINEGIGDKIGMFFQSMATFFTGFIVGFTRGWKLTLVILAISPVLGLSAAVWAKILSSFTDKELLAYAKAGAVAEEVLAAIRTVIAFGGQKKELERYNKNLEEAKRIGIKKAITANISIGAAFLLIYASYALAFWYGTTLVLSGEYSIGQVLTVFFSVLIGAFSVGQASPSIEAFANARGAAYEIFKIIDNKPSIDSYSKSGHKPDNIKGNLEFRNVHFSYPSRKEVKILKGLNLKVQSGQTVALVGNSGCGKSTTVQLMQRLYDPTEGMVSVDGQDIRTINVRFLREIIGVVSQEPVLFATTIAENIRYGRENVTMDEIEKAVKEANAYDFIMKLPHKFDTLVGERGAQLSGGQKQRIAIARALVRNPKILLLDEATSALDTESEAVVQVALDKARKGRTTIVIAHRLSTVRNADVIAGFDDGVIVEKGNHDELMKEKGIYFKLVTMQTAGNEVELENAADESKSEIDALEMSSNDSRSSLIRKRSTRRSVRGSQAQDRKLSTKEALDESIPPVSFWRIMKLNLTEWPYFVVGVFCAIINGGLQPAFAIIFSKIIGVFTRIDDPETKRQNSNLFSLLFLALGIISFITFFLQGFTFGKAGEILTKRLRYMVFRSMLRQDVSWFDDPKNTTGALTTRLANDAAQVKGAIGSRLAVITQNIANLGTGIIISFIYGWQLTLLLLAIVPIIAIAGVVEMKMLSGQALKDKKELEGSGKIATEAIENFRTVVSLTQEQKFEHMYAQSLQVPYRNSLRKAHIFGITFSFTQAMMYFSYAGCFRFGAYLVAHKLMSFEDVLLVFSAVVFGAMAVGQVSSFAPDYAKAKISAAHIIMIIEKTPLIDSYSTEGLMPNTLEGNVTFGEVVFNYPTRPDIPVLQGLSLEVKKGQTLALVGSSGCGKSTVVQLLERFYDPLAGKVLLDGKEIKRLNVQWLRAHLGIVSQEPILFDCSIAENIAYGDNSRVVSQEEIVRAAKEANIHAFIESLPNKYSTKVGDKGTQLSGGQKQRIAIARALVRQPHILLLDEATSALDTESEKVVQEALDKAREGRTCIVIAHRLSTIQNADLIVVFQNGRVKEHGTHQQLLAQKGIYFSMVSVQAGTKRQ

[3] = Exploratory toxicity study in dogs; type: in vivo; details: 0.5 mg/kg/dose QOD
LNCaP cells [4] = assay: LNCaP cell proliferation with rapamycin; type: cell-based, human; details: 100 nM Compound A + 100 nM rapamycin vs rapamycin alone; 90 hours
[5] = test system: LXFS 573 SCLC patient-derived xenograft; assay: Efficacy in LXFS 573 SCLC PDX model; type: in vivo, mice; details: for % TGI / TGI: Day 28
MKL-1 hMCC cells = assay: hMCC cell proliferation inhibition (2D, CellTiter-Glo), MKL-1; type: cell-based, human; details: MKL-1, 2D format, 7 days
Description: MKL-1 hMCC cells were cultured in vitro in RPMI-1640 culture medium (Life Technologies, Carlsbad, Calif.) containing 100 units/mL penicdlin G sodium and 100 μg/mL streptomycin sulfate (cRPMI) supplemented with 10% fetal bovine serum (FBS). MS-1 hMCC cells were cultured in vitro in cRPMI supplemented with 20% FBS.
Four to six replicates were performed at each concentration.

[6] = test system: GA0087 gastric NEC patient-derived xenograft; assay: Efficacy in GA0087 gastric neuroendocrine carcinoma PDX model; details: for Median Tumor Volumes Day 46: head prints Day 46, title Day 53
[7] = test system: gene expression (ST18, FREM2) in MKL-1 cells; assay: Gene expression modulation (RNA-seq, qRT-PCR) in cultured MKL-1 cells; type: cell-based, human; details: 10 and 100 nM, three days
Description: (§1) 22, 66, or 200 nM for qRT-PCR analysis.
(§2) Libraries were sequenced on an Illumina NextSeq® 500 System (Illumina, San Diego, Calif.) using 75 base paired-end RNA sequencing. Sequenced reads were mapped to the hg19 human genome build and differential expression was determined by analysis of variance across all replicates relative to the vehicle control
(§3) Sequenced reads were mapped to the hg19 human genome build using the Spliced Transcripts Alignment to a Reference (STAR) software tool (©Alexander Dobin, 2009-2016) and transcript counts were normalized using the Empirical Analysis of Digital Gene Expression Data in R (edgeR) and Differential gene expression analysis based on the negative binomial distribution (DESeq2) software tools (©Bioconductor, 2003-2017). Differential expression was determined by analysis of variance across all replicates relative to the vehicle control.

NCI-H1417 SCLC xenograft = type: in vivo
[8] = test system: LXFS 1129 SCLC patient-derived xenograft
MS-1 hMCC xenograft = assay: Efficacy in MS-1 hMCC xenograft (NSG mice); type: in vivo; details: 5 mg/kg PO 5 on/2 off; head prints Day-15, TGI analysis on Day 36
[9] = test system: LXFS 615 SCLC patient-derived xenograft; details: 5 mg base/kg; plasma after final dose
[10] = test system: gene expression (ST18, FREM2) in MS-1 cells; assay: Gene expression modulation (RNA-seq, qRT-PCR) in cultured MS-1 cells; type: cell-based, human; details: 10 and 100 nM, three days
Description: as §1, §2, §3

NCI-H69 SCLC cell line = assay: Antiproliferative activity, NCI-H69; type: cell-based, human; details: 3D assay; Calcein AM
[11] = test system: ST18 and FREM2 expression in MKL-1 tumors; assay: In vivo xenograft dose-response of PD biomarker gene expression, MKL-1; parameters: species or system mice; details: 1, 2.5, or 5 mg/kg PO BID ×4.5; tumors 4 h after last dose
Description: Female NSG mice bearing palpable hMCC MKL-1 and MS-1 tumors were randomized into four groups of three mice each. […] The fourth group was orally administered vehicle as a control on the BID schedule. Four hours after the last dosing, tumors were collected into RNA later and stored frozen.
Total RNA was eluted in RNase-free water and analyzed by qRT-PCR.

NCI-H841 SCLC cell line = assay: Antiproliferative activity, NCI-H841; type: cell-based, human; details: 3D assay; Calcein AM
[12] = test system: LU2527 lung NEC patient-derived xenograft; assay: Efficacy in LU2527 lung neuroendocrine carcinoma PDX model; details: 5 mg base/kg PO QD; Day 46
LNCaP cells [13] = assay: LNCaP cell proliferation with DHT and irradiation; type: cell-based, human; details: 100 nM Compound A + 10 nM DHT + 2Gy irradiation vs DHT with irradiation or DHT with Compound A; 220 hours
Description: LNCaP cells are androgen-sensitive human prostate adenocarcinoma cells. […] The proliferation of the LNCap cells was monitored for 220 hours.

[14] = Day 1, 0.125 mg base/kg/dose oral QW, Sexes Combined
[15] = Day 1, 0.25 mg base/kg/dose oral QW, M
[16] = Day 1, 0.5 mg base/kg/dose oral Q2W, M
[17] = Day 15, 0.125 mg base/kg/dose oral QW, F
[18] = Day 15, 0.125 mg base/kg/dose oral QW, M
[19] = Day 15, 0.125 mg base/kg/dose oral QW, Sexes Combined
[20] = Compound A monotherapy 5 mg/kg PO 5 on/2 off
[21] = etoposide 24 mg/kg SC QD×3 followed by Compound A 5 mg/kg PO 5 on/2 off

COc1ccc(-c2c(-c3ccc(C#N)c(F)c3)nc(N3CCC(N)CC3)n(C)c2=O)cc1F [Compound A]
combined Day 15 mean AUC ([1]; 0.125 mg base/kg/dose QW): 127 ng·h/mL
combined Day 15 mean Cmax ([1]; 0.125 mg base/kg/dose QW): 5.26 ng/mL
combined Day 15 mean AUC ([1]; 0.25 mg base/kg/dose QW): 287 ng·h/mL
combined Day 15 mean Cmax ([1]; 0.25 mg base/kg/dose QW): 11.0 ng/mL
combined Day 15 mean AUC ([1]; 0.5 mg base/kg/dose Q2W): 636 ng·h/mL
combined Day 15 mean Cmax ([1]; 0.5 mg base/kg/dose Q2W): 22.0 ng/mL
AUC0-96 ([1]; Day 1, 0.125 mg base/kg/dose oral QW, F): 127 ng·h/mL
AUC0-96 [1, 14]: 120 ng·h/mL
Cmax [1, 14]: 5.79 ng/mL
AUC0-96 [1, 15]: 335 ng·h/mL
Cmax [1, 15]: 11.9 ng/mL
Cmax ([1]; Day 1, 0.25 mg base/kg/dose oral QW, Sexes Combined): 12.0 ng/mL
Cmax ([1]; Day 1, 0.5 mg base/kg/dose oral Q2W, F): 26.6 ng/mL
AUC0-96 [1, 16]: 762 ng·h/mL
Cmax [1, 16]: 24.0 ng/mL
Cmax ([1]; Day 1, 0.5 mg base/kg/dose oral Q2W, Sexes Combined): 25.3 ng/mL
AUC0-96 [1, 17]: 141 ng·h/mL
Cmax [1, 17]: 5.54 ng/mL
AUC0-96 [1, 18]: 107 ng·h/mL
Cmax [1, 18]: 4.89 ng/mL
AUC0-96 [1, 19]: 127 ng·h/mL
Cmax [1, 19]: 5.26 ng/mL
Cmax ([1]; Day 15, 0.25 mg base/kg/dose oral QW, Sexes Combined): 11.0 ng/mL
Cmax ([1]; Day 15, 0.5 mg base/kg/dose oral Q2W, Sexes Combined): 22.0 ng/mL
treatment-related adverse finding ([1]; single female, 0.25 mg base/kg/dose QW): Moderate acute inflammation in the ileum and marked acute inflammation in the cecum
permeability [2]: 1.65e-05 cm/s
primary findings [3]: Marked thrombocytopenia and acute hemorrhage in mesenteric and mandibular lymph nodes
LNCaP cell proliferation (LNCaP cells [4]): greater inhibition of LNCap cell proliferaton
% TGI ([5]; 5 mg base/kg PO QD × 28): 72%
TGI ([5]; 5 mg base/kg oral): 78%
TGI ([5]; 7.5 mg base/kg oral): 58%
% TGI ([5]; 10 mg base/kg PO QD × 28): 71%
TGI ([5]; 10 mg/kg oral): 71%
mean body weight losses ([5]; mouse, in vivo): ≤ 3%
IC50 (MKL-1 hMCC cells): 18.4 nM
Median Tumor Volumes Day 46 ([6]; 1.5 mg base/kg PO QD × 53): 706.4 mm^3
Median Tumor Volumes Diff. ([6]; 5 mg base/kg PO QD × 53): 836.3 mm^3
Median Tumor Volumes Day 46 ([6]; 5 mg base/kg PO QD × 53): 673.2 mm^3
ST18 and FREM2 gene expression changes (upregulated) [7]: at least 2 fold
% TGD (NCI-H1417 SCLC xenograft; [20]): 335%
TGD (NCI-H1417 SCLC xenograft; [20]): 87 days
median TTE (NCI-H1417 SCLC xenograft; [20]): 113 days
% TGD (NCI-H1417 SCLC xenograft; [21]): 435%
TGD (NCI-H1417 SCLC xenograft; [21]): 113 days
median TTE (NCI-H1417 SCLC xenograft; [21]): 139 days
AUC0-24 ([8]; 1.5 mg base/kg): 243 ng·h/mL
AUC0-24 ([8]; 5 mg base/kg): 1,262 ng·hr/mL
mean body weight losses ([8]; mouse, in vivo): < 6%
Median Tumor Volumes Day-15 (MS-1 hMCC xenograft): 129 mm^3
AUC0-24 [9]: 1,617 ng·hr/mL
ST18 and FREM2 gene expression changes (upregulated) [10]: at least 2 fold
IC50 (NCI-H69 SCLC cell line): 7 µM
ST18 and FREM2 change in gene expression in vivo [11]: ≥ 2 fold
IC50 (NCI-H841 SCLC cell line): > 500 µM
% TGI [12]: 84%
LNCaP cell proliferation (LNCaP cells [13]): significantly inhibits LNCaP cell proliferation
